Measurements published in patent publication US20090253658A1, “Fat Accumulation Inhibitor” (priority 2006, published 2009).

Experiments:
[1] = test system: adiponectin concentration in blood; test: Acceleration of increase and/or inhibition of decrease of adiponectin concentration in blood (high fat feed animal test, ELISA); format: in vivo
Experimental: Using the sphingomyelin obtained in Example 7, an action of acceleration of increase and/or inhibition of decrease of an adiponectin concentration in blood was verified. An animal test was carried out using 8 animals per group by a group in which a high fat feed blended with sphingomyelin was fed (sphingomyelin diet group) and a group in which a high fat feed not blended with sphingomyelin was fed (high fat diet group). The high fat diet was prepared using a milk casein as a protein source and a butter oil as a lipid source. In the animal test, a feed was provided until the 4th week after rearing, and thereafter the group was divided into 5 groups, and the high fat feed or sphingomyelin-blended high fat feed was provided until the 8th week. Blood collection was carried out on the 4th week and on the 8th week, and an adiponectin concentration in blood was measured using a Mouse/Rat Adiponectin ELISA Kit (manufactured by Otsuka Pharmaceutical Co., Ltd.).

visceral fat = test: Inhibition of visceral fat accumulation (high fat feed animal test, dissection on 8th week); format: in vivo
Experimental: Using the sphingomyelin obtained in Example 7, an action of inhibition of visceral fat accumulation was verified. An animal test was carried out using 8 animals per group by a group in which a high fat feed blended with sphingomyelin was fed (sphingomyelin diet group) and a group in which a high fat feed not blended with sphingomyelin was fed (high fat diet group). In the animal test, the high fat feed was provided until the 4th week after rearing, and thereafter the group was divided into 5 groups, and the high fat feed or sphingomyelin-blended high fat feed was provided until the 8th week. By carrying out dissection on the 8th week, the amount of visceral fats (mesenteric, peri-testicular, perirenal, posterior abdominal) was measured.

**Q.** With “sphingomyelin [Sphingomyelin (Example 7)]” as the substance, how does the “Adiponectin concentration in blood with the lapse of time (in words)” value ([1]; 4th to 8th week, decreases in the high fat diet group) read?
**A.** The value was “increases”.

**Q.** And the “Adiponectin concentration in blood” value ([1]; 4 weeks (before start of sphingomyelin-blended high fat feed))?
**A.** The value was 10.88 µg/mL.

**Q.** What about the “Adiponectin concentration in blood” value ([1]; 8 weeks (sphingomyelin-blended high fat feed from 4th to 8th week)) of the same substance?
**A.** Its value is 15.65 µg/mL.

**Q.** And the “Amount of visceral fat, Mesenteric” value (visceral fat; dissection on the 8th week)?
**A.** The value was 2.19 g.

**Q.** And the “Amount of visceral fat, Perirenal” value (visceral fat; dissection on the 8th week)?
**A.** Its value is 0.74 g.

**Q.** What about the “Amount of visceral fat, peri-testicular” value (visceral fat; dissection on the 8th week) of the same substance?
**A.** The value was 3.22 g.

**Q.** And the “Amount of visceral fat, posterior abdominal” value (visceral fat; dissection on the 8th week)?
**A.** Its value is 2.11 g.

**Q.** And the “Amount of visceral fat (in words)” value (visceral fat; in comparison with the high fat diet group)?
**A.** Its value is “low values”.
